Measurements taken from PubChem BioAssay (NCI).
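A five-concentration, 48-hour dose response in 96-well plates underlies each endpoint, interpolated linearly between surrounding concentrations. GI50 marks 50% less growth. TGI: total growth inhibition.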

Legend:
Test in all cases: growth of human tumour cells (NCI), 48 h
SK-MEL-28 melanoma = tested on: SK-MEL-28 melanoma
NCI-H460 lung = tested on: NCI-H460 lung
SW-620 colon = tested on: SW-620 colon
OVCAR-5 ovarian = tested on: OVCAR-5 ovarian
HCT-116 colon = tested on: HCT-116 colon
LOX IMVI melanoma = tested on: LOX IMVI melanoma
OVCAR-3 ovarian = tested on: OVCAR-3 ovarian
ACHN renal = tested on: ACHN renal
K-562 leukemia = tested on: K-562 leukemia
RXF 393 renal = tested on: RXF 393 renal
SF-268 CNS = tested on: SF-268 CNS

Row | SMILES | TGI (SK-MEL-28 melanoma) | TGI (NCI-H460 lung) | TGI (SW-620 colon) | TGI (OVCAR-5 ovarian) | TGI (HCT-116 colon) | TGI (LOX IMVI melanoma) | TGI (OVCAR-3 ovarian) | TGI (ACHN renal) | TGI (K-562 leukemia) | TGI (RXF 393 renal) | TGI (SF-268 CNS) | GI50 (SK-MEL-28 melanoma) | GI50 (NCI-H460 lung) | GI50 (SW-620 colon) | GI50 (OVCAR-5 ovarian) | GI50 (OVCAR-3 ovarian) | GI50 (ACHN renal) | GI50 (K-562 leukemia) | GI50 (RXF 393 renal) | GI50 (SF-268 CNS)
1 | Cc1ccc(S(=O)(=O)N2c3ccccc3[C@H]3CCc4c([nH]c5ccccc45)[C@H]32)cc1 | > 100 µM | > 100 µM | > 100 µM | > 100 µM | > 100 µM | > 100 µM | > 100 µM | > 100 µM | > 100 µM | > 100 µM | > 100 µM |  |  |  |  |  |  |  |  | 
2 | CC(C)OC(=O)Nc1cccc(Cl)c1 | > 100 µM | > 100 µM | > 100 µM | > 100 µM | > 100 µM | > 100 µM | > 100 µM | > 100 µM | > 100 µM | > 100 µM | > 100 µM |  |  |  |  |  |  |  |  | 
3 | CC1=C(C#N)C23C(=O)c4ccccc4C(O)=C2C(=O)C=CC3(O)N1 (stereo not given) | 5.23 µM | 31.1 µM | 12.6 µM | 36.3 µM | > 100 µM | 18.9 µM | > 100 µM | 19.9 µM | > 100 µM | 9.74 µM | 26.2 µM |  |  |  |  |  |  |  |  | 
4 | CO[C@H]1ON=C(c2c(C)cc(C)cc2C)[C@@H]1C1(c2ccccc2)ON=C(c2c(C)cc(C)cc2C)O1 (stereo not given in full) | > 100 µM | > 100 µM | > 100 µM | > 100 µM | > 100 µM | > 100 µM |  | > 100 µM | > 100 µM | > 100 µM | > 100 µM |  |  |  |  |  |  |  |  | 
5 | CN1C(=O)CN2C(Cl)(Cl)C2(c2ccccc2F)c2cc([N+](=O)[O-])ccc21 (stereo not given) | > 100 µM | > 100 µM | > 100 µM | > 100 µM | > 100 µM | > 100 µM | > 100 µM | > 100 µM | > 100 µM | 66 µM | > 100 µM |  |  |  |  |  |  |  |  | 
6 | Cn1cc(-c2csc(-c3cn(C)c4ccc(Br)cc34)n2)c2cnccc21 | 3.3 µM | 3.47 µM | 3.48 µM | 3.22 µM |  |  | 3.49 µM | 3.4 µM | 0.563 µM | 3.2 µM | 3.67 µM | 1.85 µM | 1.87 µM | 1.85 µM | 1.78 µM | 1.89 µM | 1.97 µM | 0.239 µM | 1.7 µM | 1.9 µM
7 | COc1ccc(CC2c3cc(OC)c(OC)c(OC)c3CC[N+]2(C)C)cc1Oc1ccc(CC2c3cc4c(c(OC)c3CC[N+]2(C)C)OCO4)cc1 (stereo not given) | > 100 µM | > 100 µM | > 100 µM | > 100 µM | > 100 µM | > 100 µM |  | > 100 µM | > 100 µM |  | > 100 µM |  |  |  |  |  |  |  |  | 
8 | CC(=O)OCc1ccc2oc(=O)c(C(=O)Oc3cccc(Cl)c3)cc2c1 | > 100 µM | > 100 µM | > 100 µM | > 100 µM | 54.5 µM | > 100 µM | > 100 µM | > 100 µM | 79.8 µM | > 100 µM | > 100 µM |  |  |  |  |  |  |  |  | 
9 | CCCCC(C(=O)N/N=C/c1ccc([N+](=O)[O-])o1)C(=O)N/N=C/c1ccc([N+](=O)[O-])o1 | 14.7 µM | 35.6 µM | 6.71 µM | 7.23 µM | 2.9 µM | 5.92 µM | 5.65 µM | 3.69 µM | 14.6 µM | 5.07 µM | 20.3 µM |  |  |  |  |  |  |  |  | 
10 | [O-]c1c[n+](CCCC[n+]2cc([O-])on2)no1 | > 100 µM | > 100 µM | > 100 µM | > 100 µM | > 100 µM | > 100 µM | > 100 µM | > 100 µM | > 100 µM | > 100 µM | > 100 µM |  |  |  |  |  |  |  |  | 
11 | c1ccc(CSC2(SCc3ccccc3)CCCC2)cc1 | > 10 µM | > 10 µM | > 10 µM | > 10 µM | > 10 µM | > 10 µM | > 10 µM | > 10 µM | > 10 µM | > 10 µM | > 10 µM |  |  |  |  |  |  |  |  | 
12 | c1ccc(CSc2ccccc2CN2CCN(Cc3ccccc3SCc3ccccc3)CCN(Cc3ccccc3SCc3ccccc3)CC2)cc1 | 4.61 µM | 2.87 µM | 69.2 µM | 6.04 µM | 2.03 µM | 2.75 µM | 1.82 µM | 10.7 µM | 7.18 µM |  | 10.3 µM |  |  |  |  |  |  |  |  | 
13 | C1CCC(OCc2nnn3c2CCC3)OC1 (stereo not given) | > 100 µM | > 100 µM | > 100 µM | > 100 µM | > 100 µM | > 100 µM | > 100 µM | > 100 µM | > 100 µM | > 100 µM |  |  |  |  |  |  |  |  |  | 
14 | NC(=O)c1ccc(NS(=O)(=O)c2ccc(N)cc2)nc1 | > 100 µM | > 100 µM | > 100 µM | > 100 µM | > 100 µM | > 100 µM | > 100 µM | > 100 µM | > 100 µM |  | > 100 µM |  |  |  |  |  |  |  |  | 
15 | COC(=O)C(=O)C(C(=O)C1=NS(=O)(=O)c2cc(S(N)(=O)=O)c(Cl)cc2N1)c1nc2ccc(C(=O)c3ccccc3)cc2[nH]c1=O (stereo not given) | > 100 µM | > 100 µM | > 100 µM | > 100 µM | > 100 µM |  |  | > 100 µM | > 100 µM | > 100 µM | > 100 µM |  |  |  |  |  |  |  |  | 
16 | Nc1nc(Cl)cc(NCCCNc2cc(Cl)nc(N)n2)n1 | > 100 µM | > 100 µM | > 100 µM | > 100 µM | > 100 µM | > 100 µM | > 100 µM |  | > 100 µM | > 100 µM | > 100 µM |  |  |  |  |  |  |  |  | 
17 | CCN1CCN(c2nc3ccccc3nc2C(=O)c2ccc(OC)cc2)CC1 | > 100 µM | > 100 µM | > 100 µM | > 100 µM | 36.7 µM | > 100 µM | > 100 µM | > 100 µM | > 100 µM | 43.5 µM | > 100 µM |  |  |  |  |  |  |  |  | 
18 | CS/C(C#N)=C(\C#N)SC | 37.7 µM | 81.4 µM | > 100 µM | > 100 µM | > 100 µM | > 100 µM | 4.88 µM | 29.9 µM | 48.4 µM | 5.11 µM | 58 µM |  |  |  |  |  |  |  |  | 
19 | C=CCc1c(C)nc(C)nc1N/N=C/C=C/c1ccccc1 | > 100 µM | 57.5 µM | > 100 µM | > 100 µM | > 100 µM | > 100 µM | 53.3 µM | > 100 µM | 87.4 µM | 47 µM | > 100 µM |  |  |  |  |  |  |  |  | 
20 | CNC1C(O)C(NC)C2OC3(O)C(=O)CC(C)OC3OC2C1O (stereo not given) | > 100 µM | > 100 µM | > 100 µM | > 100 µM | > 100 µM | > 100 µM | > 100 µM | > 100 µM | > 100 µM | > 100 µM | > 100 µM |  |  |  |  |  |  |  |  | 
21 | CN(C)CC1CCCC(CN2CCCCC2)C1=O (stereo not given) | 27.6 µM | > 68.6 µM | 3.74 µM | 46.5 µM | 7.53 µM | 18.3 µM | 17.1 µM | 13.6 µM |  | 26.6 µM | 40.2 µM |  |  |  |  |  |  |  |  | 
22 | CN(C)CCCNC(=O)c1cc(NC(=O)c2cc(NS(=O)(=O)c3ccc4c(c3)C(=O)c3ccccc3C4=O)cn2C)cn1C | > 100 µM | > 100 µM | > 100 µM | > 100 µM | > 100 µM | > 100 µM | > 100 µM | > 100 µM | > 100 µM | > 100 µM | > 100 µM |  |  |  |  |  |  |  |  | 
23 | Cc1cc(S(=O)(=O)NC(=C(C#N)C#N)[n+]2ccc(N(C)C)cc2)c([S-])cc1Cl | > 100 µM | > 100 µM |  | > 100 µM | > 100 µM |  | > 100 µM | > 100 µM | > 100 µM | > 100 µM | > 100 µM |  |  |  |  |  |  |  |  | 
24 | Cc1ccccc1[P+](C)(c1ccccc1C)c1ccccc1C | 35.8 µM | > 100 µM | 39.1 µM | 33.5 µM | 38.5 µM | 30.5 µM | 23.6 µM | 29.3 µM |  | > 100 µM | > 100 µM |  |  |  |  |  |  |  |  | 
25 | C=C1C(=O)OC2/C=C(\C)C3OC3/C=C(/C(=O)OC)C(O)C(OC(=O)C3(C)OC3C)C12 (stereo not given) | 3.17 µM | 17.8 µM | 3.1 µM | 30.4 µM | 2.43 µM | 3.75 µM | 10 µM | 10.7 µM | 14.3 µM | 2.22 µM | 29.9 µM |  |  |  |  |  |  |  |  | 
26 | CC(N)C(=O)OCN1C(=O)C2C3C=CC(C2C1=O)C1C2C(=O)N(COC(=O)C(C)N)C(=O)C2C31 (stereo not given) | 41.4 µM | 34.3 µM | 47.4 µM | > 100 µM | 44.9 µM | 35.8 µM | 91.5 µM | 70.4 µM | 77 µM | 38.7 µM | 47.9 µM |  |  |  |  |  |  |  |  | 
27 | Cc1nc2c(O)cc3c4c(=O)n(C)c(=O)n(C)c4n(Cc4ccccc4)c3c2nc1C | 28 µM | > 100 µM | 44.2 µM | 43.6 µM | 52.1 µM | 37.4 µM |  | 31.7 µM | > 100 µM | 26.7 µM | 32.9 µM |  |  |  |  |  |  |  |  | 
